{"source": "patent US20150174145A1", "about": "“Pharmaceutical compounds with the structure of ionic salts with antibiotic and anticancer action” (priority 2013, published 2015)", "key": {"K. pneumoniae": {"test_system": "K. pneumoniae", "test": "Minimum inhibitory concentration, ampicillin sensitive strains", "format": "cell-based, Klebsiella pneumonia", "details": "K. pneumoniae, Gram-negative, ampicillin sensitive", "experimental": "(§1) Each one of the 24 combinations of the ionic liquids were tested with following 9 bacteria: • Escherichia coli ATCC25922 • Staphylococcus aureus ATCC25923 • Klebsiella pneumonia • Staphylococcus epidermidis • Enterococcus fecalis • E. coli Tem CTXM9 • E. coli CTXM2 • E. coli AmpCMox2 • Saccharomyces cerevisiae PYCC 4072\n(§2) These bacteria were tested in Vitek2 systems from bioMérieux. Bacteria were grown on Trypticase soy agar for 24 hours at 37° C. prior to each test. The bacteria assays were made in Tryptic Soy Broth."}, "E. coli TEM CTX M9 [1]": {"test_system": "E. coli TEM CTX M9", "test": "Growing rates in presence and absence of compound", "format": "cell-based", "details": "E. coli TEM CTX M9, conc. tested 0.05 mM", "experimental": "as §2"}, "E. coli AmpC MOX2": {"test_system": "E. coli AmpC MOX2", "test": "Growing rates in presence and absence of compound", "format": "cell-based", "details": "E. coli AmpC Mox2, conc. tested 0.05 mM", "experimental": "as §2"}, "E. coli CTX M2": {"test_system": "E. coli CTX M2", "test": "Minimum inhibitory concentration, ampicillin resistant strains", "format": "cell-based", "details": "Escherichia coli, CTXM2; E. coli CTX M2, ampicillin resistant; read-out: Minimum inhibitory concentrations", "experimental": "as §1, §2"}, "E. coli TEM CTX M9 [2]": {"test_system": "E. coli TEM CTX M9", "test": "Minimum inhibitory concentration, ampicillin resistant strains", "format": "cell-based", "details": "Escherichia coli; E. coli TEM CTX M9, ampicillin resistant; read-out: Minimum inhibitory concentrations", "experimental": "as §1, §2"}, "[3]": {"test_system": "T47D (ductal breast epithelial tumour cell line)", "test": "cells", "format": "cell-based", "details": "Homo sapiens; T47D, MTT assay", "experimental": "(§3) At about 70-80% confluence, cells were enzymatically detached with 0.05% trypsin and 0.5 mM EDTA and seeded at 10^4 cells cm^−2.\n(§4) After an attachment period of 24 hours, the culture medium was renewed, and supplemented with different concentrations (0.005-500 mM) of the ampicillin derived ionic liquid. Cell cultures were maintained in a 5% CO2 humidified atmosphere at 37° C.\n(§5) Cellular viability/proliferation was assessed by the MTT assay at days 1, 3 and 5 of the culture. This assay is based on the reduction of 3-(4,5-dimethylthiazol-2-yl)-2,5-diphenyltetrazolium bromide (MTT) to a purple formazan product by viable cells.\n(§6) Shortly, cultured cells were incubated at 37° C. with 0.5 mg ml −1 of MTT for 4 hours. The culture medium was then removed; the stained product dissolved with dimethylsulfoxide, and absorbance determined at 550 nm in an ELISA plate rewader. Results were expressed as absorbance per cm2.\n(§7) The values of the […] (IC50) and the median lethal dose (LD50) were obtained from nonlinear regression analysis of concentration effect curves using the GGraphPad Prism Software.\n(§8) It is used to measure the efficacy of a compound in inhibiting any biochemical or biological function."}, "E. coli ATCC 25922 [4]": {"test_system": "E. coli ATCC 25922", "test": "Minimum inhibitory concentration, ampicillin sensitive strains", "format": "cell-based, Escherichia coli", "details": "Escherichia coli, ATCC25922; E. coli ATCC 25922, Gram-negative, ampicillin sensitive; read-out: Minimum inhibitory concentrations", "experimental": "as §1, §2"}, "S. epidermis [5]": {"test_system": "S. epidermis", "test": "Growing rates in presence and absence of compound", "format": "cell-based, Staphylococcus epidermidis", "details": "conc. tested 0.005 mM", "experimental": "as §2"}, "E. coli ATCC 25922 [6]": {"test_system": "E. coli ATCC 25922", "test": "Growing rates in presence and absence of compound", "format": "cell-based, Escherichia coli", "details": "E. coli ATCC 25922, conc. tested 0.5 mM", "experimental": "as §2"}, "E. fecalis [7]": {"test_system": "E. fecalis", "test": "Minimum inhibitory concentration, ampicillin sensitive strains", "format": "cell-based, Enterococcus fecalis", "details": "Enterococcus; E. fecalis, Gram-positive, ampicillin sensitive; read-out: Minimum inhibitory concentrations", "experimental": "as §1, §2"}, "E. fecalis [8]": {"test_system": "E. fecalis", "test": "Growing rates in presence and absence of compound", "format": "cell-based, Enterococcus fecalis", "details": "conc. tested 0.005 mM", "experimental": "as §2"}, "S. aureus ATCC 25923": {"test_system": "S. aureus ATCC 25923", "test": "Growing rates in presence and absence of compound", "format": "cell-based, Staphylococcus aureus", "details": "S. aureus ATCC 25923, conc. tested 0.0005 mM", "experimental": "as §2"}, "S. epidermis [9]": {"test_system": "S. epidermis", "test": "Minimum inhibitory concentration, ampicillin sensitive strains", "format": "cell-based, Staphylococcus epidermidis", "details": "Staphylococcus epidermidis; S. epidermis, Gram-positive, ampicillin sensitive; read-out: Minimum inhibitory concentrations", "experimental": "as §1, §2"}, "K. pneumonia": {"test_system": "K. pneumonia", "test": "Growing rates in presence and absence of compound", "format": "cell-based, Klebsiella pneumonia", "details": "conc. tested 0.5 mM", "experimental": "as §2"}, "[10]": {"test_system": "RKO (colon cancer cell line)", "test": "MTT cellular viability/proliferation, cancer cell lines", "format": "cell-based, human", "details": "Homo sapiens, MTT assay", "experimental": "as §3, §4, §5, §6, §7, §8"}, "[11]": {"test_system": "MG63 (osteosarcoma cell line)", "test": "MTT cellular viability/proliferation, cancer cell lines", "format": "cell-based, human", "details": "Homo sapiens, MG-63; MG63, MTT assay", "experimental": "as §3, §4, §5, §6, §7, §8"}, "[12]": {"test_system": "PC3 (prostate cancer cell line)", "test": "MTT cellular viability/proliferation, cancer cell lines", "format": "cell-based, human", "details": "Homo sapiens; PC3, MTT assay", "experimental": "as §3, §4, §5, §6, §7, §8"}, "[13]": {"test_system": "HepG2 (hepatocellular liver carcinoma cell)", "test": "MTT cellular viability/proliferation, cancer cell lines", "format": "cell-based, human", "details": "Homo sapiens; HepG2, MTT assay", "experimental": "as §3, §4, §5, §6, §7, §8"}, "SF (skin fibroblasts)": {"test_system": "SF (skin fibroblasts)", "test": "MTT cellular viability/proliferation, primary human cells", "format": "cell-based", "details": "Homo sapiens, Skin fibroblast, MTT assay", "experimental": "as §3, §4, §5, §6, §7, §8"}, "[14]": {"test_system": "gingival fibroblasts (GF)", "test": "MTT cellular viability/proliferation, primary human cells", "format": "cell-based", "details": "Homo sapiens, Fibroblast, MTT assay", "experimental": "as §3, §4, §5, §6, §7, §8"}}, "data": [{"smiles": "CC1(C)S[C@@H]2[C@H](NC(=O)[C@H](N)c3ccccc3)C(=O)N2[C@H]1C(=O)O", "note": "[[P6,6,6,14][Amp]]", "values": [{"measurement": "Minimum inhibitory concentrations", "setting": "K. pneumoniae", "value": 5000, "unit": "µM"}, {"measurement": "MIC", "setting": "K. pneumoniae; Klebsiella pneumoniae, read-out: Minimum inhibitory concentrations", "value": 5000, "unit": "µM"}, {"measurement": "Growing rate with compound", "setting": "E. coli TEM CTX M9 [1]", "value": "0.00067 ± 0.00006", "unit": "min⁻¹"}, {"measurement": "Decreasing rate", "setting": "E. coli TEM CTX M9 [1]; with compound vs no compound", "value": 0.20}, {"measurement": "Growing rate with compound", "setting": "E. coli AmpC MOX2", "value": "0.00077 ± 0.00006", "unit": "min⁻¹"}, {"measurement": "Decreasing rate", "setting": "E. coli AmpC MOX2; with compound vs no compound", "value": 0.24}, {"measurement": "MIC", "setting": "E. coli CTX M2", "value": 500, "unit": "µM"}, {"measurement": "MIC", "setting": "E. coli TEM CTX M9 [2]", "value": 500, "unit": "µM"}, {"measurement": "IC50", "setting": "[3]", "value": 264, "unit": "nM"}, {"measurement": "MIC", "setting": "E. coli ATCC 25922 [4]", "value": 2500, "unit": "µM"}, {"measurement": "Growing rate with compound", "setting": "S. epidermis [5]", "value": "0.0006 ± 0.0000", "unit": "min⁻¹"}, {"measurement": "Decreasing rate", "setting": "S. epidermis [5]; with compound vs no compound", "value": 0.13}, {"measurement": "Growing rate with compound", "setting": "E. coli ATCC 25922 [6]", "value": "0.0007 ± 0.0001", "unit": "min⁻¹"}, {"measurement": "Decreasing rate", "setting": "E. coli ATCC 25922 [6]; with compound vs no compound", "value": 0.035}, {"measurement": "MIC", "setting": "E. fecalis [7]", "value": 50, "unit": "µM"}, {"measurement": "Growing rate with compound", "setting": "E. fecalis [8]", "value": "0.0009 ± 0.0004", "unit": "min⁻¹"}, {"measurement": "Decreasing rate", "setting": "E. fecalis [8]; with compound vs no compound", "value": 0.28}, {"measurement": "Growing rate with compound", "setting": "S. aureus ATCC 25923", "value": "0.0004 ± 0.0003", "unit": "min⁻¹"}, {"measurement": "Decreasing rate", "setting": "S. aureus ATCC 25923; with compound vs no compound", "value": 0.077}, {"measurement": "MIC", "setting": "S. epidermis [9]", "value": 50, "unit": "µM"}, {"measurement": "Growing rate with compound", "setting": "K. pneumonia", "value": "0.00045 ± 0.00007", "unit": "min⁻¹"}, {"measurement": "Decreasing rate", "setting": "K. pneumonia; with compound vs no compound", "value": 0.18}, {"measurement": "IC50", "setting": "[10]", "value": 180, "unit": "nM"}, {"measurement": "IC50", "setting": "[11]", "value": 312, "unit": "nM"}, {"measurement": "IC50", "setting": "[12]", "value": 354, "unit": "nM"}, {"measurement": "IC50", "setting": "[13]", "value": 322, "unit": "nM"}, {"measurement": "IC50", "setting": "SF (skin fibroblasts)", "value": 249, "unit": "nM"}, {"measurement": "IC50", "setting": "[14]", "value": 173, "unit": "nM"}]}]}
